Assay results published in paper PMC3741113, “De-Novo Design of Antimicrobial Peptides for Plant Protection” (PLoS ONE, 2013).
Ends that are not written are not given here.

What was measured:
Pseudomonas corrugata = conditions: Table 4, incubation period 2d; LB-medium, 27°C
[1] = system: Clavibacter michiganensis ssp. michiganensis; conditions: Table 4, incubation period 2d; LB-medium, 27°C
[2] = system: Pectobacterium carotovorum ssp. carotovorum; conditions: Table 4, incubation period 1d; LB-medium, 27°C
[3] = system: Pseudomonas syringae pv. syringae; conditions: Table 4, incubation period 1d; LB-medium, 27°C
Xanthomonas vesicatoria = conditions: Table 4, incubation period 2d; LB-medium, 27°C
[4] = system: Pseudomonas syringae pv. tomato; conditions: Table 4, incubation period 1d; LB-medium, 27°C

Row | Substance | MIC (Pseudomonas corrugata) [µg/mL] | MIC [1] [µg/mL] | MIC [2] [µg/mL] | MIC [3] [µg/mL] | MIC (Xanthomonas vesicatoria) [µg/mL] | MIC [4] [µg/mL]
1 | RKKRKKLLKRLL-NH2 [SP1-18] | 0.25 | 5.0 | >10 | 0.1 | 5.0 | 1.0
2 | RKKKKKIIKKLI-NH2 [SP1-21] | 2.5 | >10 | >10 | 0.5 | >10 | 2.5
3 | RKKRLKVVKRLV-NH2 [SP1-4] | >10 | >10 | >10 | 5.0 | >10 | 2.5
4 | LRFAKKALKKLF-NH2 [SP10-3] | 1.0 | 2.5 | >10 | 0.25 | 2.5 | 0.25
5 | KRRILIRILKLIIKLILKKR-NH2 [SP13-5] | 10 | 2.5 | >10 | >10 | 1.0 | 2.5
6 | KRRKLIKILKLIAKLIRKKR-NH2 [SP13-7] | 0.5 | 0.25 | >10 | >10 | 0.1 | 10
7 | KRKKLLKRLI-NH2 [SP1-16] | 0.5 | >10 | >10 | 0.1 | 10 | 1.0
8 | KRRKLAFRLFRLFLKLVLKK-NH2 [SP13-14] | 2.5 | 0.5 | >10 | 5.0 | 0.25 | 2.5
9 | RKKRVKLLKRLV-NH2 [SP1-2] | 0.5 | 10 | >10 | 2.5 | 5.0 | 5.0
10 | KKKKKKIIKKII-NH2 [SP1-22] | >10 | >10 | >10 | 2.5 | >10 | 1.0
11 | RKKKIKIIKKII-NH2 [SP1-9] | 5.0 | 2.5 | >10 | 0.5 | 2.5 | 5.0
12 | KRRKAIKILKLIAKAIRKKR-NH2 [SP13-9] | 0.25 | 0.25 | >10 | >10 | 0.1 | >10
13 | KRRKLIKILKLIIKLIRKKR-NH2 [SP13-6] | 2.5 | 0.1 | >10 | 1.0 | 0.1 | 2.5
14 | KRRLILRILRLAIRALVKKR-NH2 [SP13-2] | 5.0 | 0.25 | >10 | 5.0 | 0.25 | 10
15 | KRRLILRILRLAIRILVKKR-NH2 [SP13-3] | >10 | 2.5 | >10 | >10 | 2.5 | 10
16 | KKKKIIKRLI-NH2 [SP1-17] | 5.0 | >10 | >10 | <0.1 | >10 | 1.0

Row | Substance | MIC (Pseudomonas corrugata) [µg/mL] | MIC [1] [µg/mL] | MIC [2] [µg/mL] | MIC [3] [µg/mL] | MIC (Xanthomonas vesicatoria) [µg/mL] | MIC [4] [µg/mL]
17 | RKKKIKIIKRLI-NH2 [SP1-8] | 2.5 | 5.0 | >10 | 0.25 | 2.5 | –
18 | KRKKLLKRLL-NH2 [SP1-15] | <0.1 | 5.0 | >10 | 0.1 | 5.0 | 1.0
19 | LRFLKKILKKLF-NH2 [SP10-1] | 2.5 | 1.0 | 2.5 | 2.5 | 2.5 | 1.0
20 | RKKRLRVVRRLV-NH2 [SP1-5] | 5.0 | >10 | >10 | >10 | >10 | 1.0
21 | LRILRRLLRRLF-NH2 [SP10-7] | 2.5 | 5.0 | >10 | >10 | 5.0 | 1.0
22 | KRRLIARILRLAIRALVKKR-NH2 [SP13-1] | 2.5 | 0.5 | >10 | 1.0 | 0.5 | 1.0
23 | LRIIRRILRRLI-NH2 [SP10-6] | 2.5 | 2.5 | 2.5 | 2.5 | 1.0 | 1.0
24 | RKKRKKLIKRLI-NH2 [SP1-19] | 0.5 | 5.0 | >10 | <0.1 | 5.0 | >10
25 | LRKAKKIAKKLF-NH2 [SP10-11] | 0.5 | 5.0 | >10 | 0.1 | 0.5 | 0.5
26 | RKKKLKFFKRLF-NH2 [SP1-11] | 0.25 | 2.5 | >10 | 1.0 | 2.5 | >10
27 | KRRLFLFRLFRLFLRLFLKK-NH2 [SP13-12] | 10 | 2.5 | >10 | >10 | 2.5 | 5.0
28 | LRFARRALRRLF-NH2 [SP10-9] | 0.5 | 1.0 | 2.5 | 0.25 | 1.0 | 0.25
29 | RKKKLKIIKRLI-NH2 [SP1-7] | 0.5 | 2.5 | >10 | 0.1 | 1.0 | –
30 | RKKKLKVVKRLV-NH2 [SP1-6] | >10 | 10 | >10 | 5.0 | >10 | 1.0
31 | KRRKLAFRAFRFALKAVLKK-NH2 [SP13-13] | 0.25 | 0.5 | >10 | 0.5 | 0.25 | 2.5
32 | RKKKAKIIKKII-NH2 [SP1-10] | 10 | >10 | >10 | 1.0 | >10 | >10
